Data reported in PMC9964505 (International Journal of Molecular Sciences, 2023).

Columns and labels:
[1] = system: persistent mechanical pain in mouse models; design: method as in PMID 34039739; settings: hindpaw injection; mouse plantar incision, CFA and paclitaxel models; cited from earlier work
[2] = system: mechanical hypersensitivity in a mouse SNI model; design: method as in PMID 34039739; settings: intra-plantar injection; cited from earlier work
uninjured mice = system: uninjured mice; design: method as in PMID 34039739; settings: peripheral dosing; cited from earlier work
[3] = system: partial restraint stress-induced colonic hypersensitivity in female rats; experiment: colonic distension test in partial restraint stress model; settings: for percentual anti-hypersensitivity activity on colonic hypersensitivity: mean of three trials
Protocol: Animals were placed for 2 h in a plexiglas restraint cylinder in order to restrict, but not impede, body movements. Naïve control animals were allowed to move freely in their cages. Immediately after completion of the 2 h restraint stress period, 3 consecutive determinations of colonic sensitivity were performed every 20 min.
Colonic sensitivity was assessed by measuring the intra-colonic pressure required to induce a pain-related behavioral response during colonic distension (Electronic barostat, Distender Series IIRTM). Sedation is considered as a confounding factor in the assessment of pain, and therefore all experiments were performed in non-sedated conscious rats. In order to reduce bias, all experiments were performed by the same dedicated personnel within a study. The visceral pressure range was studied from 5 to 75 mmHg, but pain responses were typically evident at 30–35 mmHg. Briefly, a 5 cm balloon was gently inserted into the colon of conscious rats at 7 to 10 cm from the anus, and the catheter was taped to the base of the tail. After a 30 min acclimation period with the inserted balloon, colonic pressure was increased by 5 mmHg steps every 30 s, from 5 to 75 mmHg (cut-off), until pain-related elevation of the hind part of the rat body and/or a clearly visible abdominal contraction corresponding to severe cramp were evident.
The formula: ((Distension thresholdTNBS/PRS + veh − Distension thresholdnaïve + veh)/(Distension thresholdnaïve + veh)) × 100, was used to calculate percentual variation due to trinitrobenzene sulfonic acid administration or partial restraint stress, as compared to naïve rats. […] Statistical analyses were conducted using GraphPad Prism (version 8.4.2) and p < 0.05 was considered to represent a significant difference.

[4] = system: CCI-induced mechanical hypersensitivity in male rats; experiment: paw pressure test in chronic constriction injury (CCI) model
Protocol: Prior to behavioral studies, the rats were habituated to the experimental conditions and handling. The common sciatic nerve of the right hindpaw was injured at the level of the middle of the thigh. Proximal to the sciatic trifurcation, four loose ligatures were tied around it with about 1 mm spacing using Mersilk sutures in anaesthetized rats (Xylazine 10 mg/kg i.p., Ketamine 60 mg/kg i.p.). Great care was taken to tie the ligatures, such that the diameter of the nerve was seen to be just barely constricted. Sham animals received only a skin and muscle incision. Fourteen days after the surgery, individual baseline values of the withdrawal threshold evoked by squeezing of the hind limb between a flat surface and a blunt pointer with an analgesimeter (Ugo Basile, Gemonio, Italy) were determined on both hindpaws while the animal was gently held in a restrained position. The analgesimeter exerted a steadily increasing force, and the reaction threshold was determined as the pressure (g) required to elicit paw withdrawal and/or vocalization. […] Dosing and testing were performed in a random order.
Statistical analyses were conducted using GraphPad Prism (version 8.4.2) and p < 0.05 was considered to represent a significant difference.

[5] = system: mustard oil-induced visceral pain-related behaviors and hindpaw mechanical hypersensitivity; settings: intraperitoneal, and oral to a lesser extent; cited from earlier work
[6] = system: rat spared nerve injury model of neuropathic pain; settings: amygdaloid application; cited from earlier work
[7] = system: trinitrobenzene sulfonic acid-induced colonic hypersensitivity in male rats; experiment: colonic distension test in TNBS-induced colonic hypersensitivity model; assay type: in vivo, rat; settings: for mean percentual colonic anti-hypersensitivity activity: mean of four trials (30, 50, 70, 120 min)
[8] = terminal plasma and brain exposure in female rats (PRS study); assay type: in vivo, rat; settings: 3-30 mg/kg p.o.
Protocol: Briefly, total blood was collected by intra-cardiac puncture on anaesthetized (3% Isoflurane, 3 L/min) animals into pre-cooled K3EDTA tubes. […] At least 100–200 µL of plasma was gently collected and immediately frozen at −80 °C. After decapitation, the whole brain was collected, rinsed with fresh ice-cold 0.9% NaCl solution, and thereafter frozen in dry ice and stored in a polypropylene tube at −80 °C.

[9] = plasma and brain exposure in male rats (CCI study and satellite rats); assay type: in vivo, rat; settings: independent of dose or sampling time
Protocol: Terminal samples for concentration analyses were also collected from HC-070-treated sciatic nerve-injured male animals at the end of the paw pressure test, and from female rats at the end of the last colonic distension test in the partial restraint stress (PRS) study. Briefly, total blood was collected by intra-cardiac puncture on anaesthetized (3% Isoflurane, 3 L/min) animals into pre-cooled K3EDTA tubes. Samples were gently mixed, placed on ice, and centrifuged at the latest within 30 min after collection at 1600× g or 1710× g for 10 min at 4 °C. At least 100–200 µL of plasma was gently collected and immediately frozen at −80 °C. After decapitation, the whole brain was collected, rinsed with fresh ice-cold 0.9% NaCl solution, and thereafter frozen in dry ice and stored in a polypropylene tube at −80 °C.

[10] = plasma protein binding, rapid equilibrium dialysis; assay type: in vitro ADME; settings: rat plasma, 1 µg/mL, 37 °C, 4 h
Protocol: Plasma protein binding studies were carried out in male Wistar Hannover rat plasma with heparin as the anticoagulant. All plasma samples were obtained from BioreclamationIVT (Baltimore, MD, USA). A Pierce Rapid Equilibrium Dialysis Device (RED) was used for the experiments. Aliquots of plasma (300 µL) containing the compound of interest (1 µg/mL) and phosphate-buffered saline (PBS) (500 µL) were added to the sample chamber and buffer chamber, respectively, on the RED device. The loaded dialysis plate was sealed and placed on a pre-heated shaker, and incubated at physiological temperature (+37 °C) for 4 h. After the incubation, aliquots of 50 µL for the donor and 200 µL for the receiver were removed from the chambers and placed into a 96-well plate. Plasma (50 µL) was added to the wells containing the receiver samples and 200 µL of PBS was added to the wells containing the donor samples. Two volumes of ACN were added to each well, and the samples were mixed and centrifuged, after which the supernatant was analysed by LC-MS/MS.

[11] = brain homogenate binding, rapid equilibrium dialysis; assay type: in vitro ADME, rat; settings: as fraction
Protocol: The brain homogenate binding study was carried out in male Wistar Hannover brain homogenate, obtained from BioreclamationIVT (Baltimore, MD, USA). Brains were homogenized with two volumes of PBS prior to initiating the experiment. The instrumentation, volume ratios, incubation conditions, and sample preparation were the same as described above for plasma protein binding (brain homogenate used instead of plasma).

incised mice = system: incised mice; design: method as in PMID 34039739; settings: hindpaw administration; cited from earlier work
mice = settings: mouse, in vivo, po; cited from earlier work

c1ccc(Cn2c(NCc3ccco3)nc3ccccc32)cc1 [AC1903]
effect on persistent mechanical pain [1]: prevents the persistent mechanical pain
effect on mechanical hypersensitivity [2]: failed to attenuate
effect on naïve mechanical sensitivity (uninjured mice): did not change

CN1CC[C@]23c4c5ccc(O)c4O[C@H]2[C@@H](O)C=C[C@H]3[C@H]1C5 [morphine]
effect on PRS-lowered visceral pain threshold ([3]; 1 mg/kg s.c.): significant reversal
percentual anti-hypersensitivity activity on colonic hypersensitivity ([3]; 1 mg/kg s.c.): 272%
effect on mechanical withdrawal threshold of the non-injured control paw ([4]; 3 mg/kg s.c.): statistically significantly increased
effect on sustained CCI-induced mechanical hypersensitivity (reversal) ([4]; 3 mg/kg s.c., first two time points (45, 75 min)): abolished

Cc1cc(N2CCCCC2)nc2ccccc12 [ML-204]
effect on mustard oil-induced visceral pain-related behaviors and hindpaw mechanical hypersensitivity [5]: dose-dependently attenuated
effect on mechanical hypersensitivity and affective-like spontaneous pain-related behavior [6]: dose-dependent suppression

Cn1c(=O)n(CCCO)c(=O)c2c1nc(Oc1cccc(Cl)c1)n2Cc1ccc(Cl)cc1 [HC-070]
effect on TNBS-induced colonic hypersensitivity (colonic distension threshold) ([7]; 3 mg/kg p.o., at 70 and 120 min): significantly and in a dose-dependent manner attenuated
mean percentual colonic anti-hypersensitivity activity ([7]; 3 mg/kg p.o.): 58%
effect on TNBS-induced colonic hypersensitivity (colonic distension threshold) ([7]; 10 mg/kg p.o., all time points (30-120 min)): reversed
mean percentual colonic anti-hypersensitivity activity ([7]; 10 mg/kg p.o.): 99%
effect on TNBS-induced colonic hypersensitivity (colonic distension threshold) ([7]; 30 mg/kg p.o., all time points (30-120 min)): reversed
mean percentual colonic anti-hypersensitivity activity ([7]; 30 mg/kg p.o.): 134%
KP,uu,BR (partitioning coefficient between unbound brain and plasma exposures) [8]: 0.5–0.8
KP,uu,BR (partitioning coefficient between unbound brain and plasma exposures) [9]: 0.4–0.6
plasma protein binding [10]: 99.5%
unbound fraction in rat brain homogenate [11]: 0.001
effect on established postoperative mechanical hypersensitivity (incised mice): alleviated
effect on locomotor activity (mice): nor did oral HC-070 treatment alter the locomotor activity
percentual anti-hypersensitivity activity on colonic hypersensitivity ([3]; 3 mg/kg p.o.): 100%
percentual anti-hypersensitivity activity on colonic hypersensitivity ([3]; 10 mg/kg p.o.): 181%
percentual anti-hypersensitivity activity on colonic hypersensitivity ([3]; 30 mg/kg p.o.): 188%
effect on colonic sensibility after PRS ([3]; oral doses of 3, 10 and 30 mg/kg): dose-dependently restored
reversal percentage of CCI-induced mechanical hypersensitivity, injured paw ([4]; 3 mg/kg p.o., 45 min): 34%
effect on CCI-induced mechanical hypersensitivity (withdrawal threshold, injured paw) ([4]; 10 mg/kg p.o., 75 min): significantly attenuated
reversal percentage of CCI-induced mechanical hypersensitivity, injured paw ([4]; 10 mg/kg p.o., 75 min): 51%
effect on CCI-induced mechanical hypersensitivity (withdrawal threshold, injured paw) ([4]; 30 mg/kg p.o., 45 min): significantly attenuated
reversal percentage of CCI-induced mechanical hypersensitivity, injured paw ([4]; 30 mg/kg p.o., 45 min): 62%
